In PMC9671962 (Communications Biology, 2022):
Where “and” joins values, the source holds several entries; their conditions need not be identical. Equal values may be shown once.

Key:
NB-EBC1x = test: Pre-clinical efficacy study, NB-EBC1x PDX; format: in vivo, mouse; conditions: for EFS by AOC method / Tumor response (% growth from study initiation at ~ 200 mm3): single mouse; for Tumor Volume: NBEBC1 tumor re-challenge (24 MBq/kg/fraction x 4)
Description: (§1) Patient demographics and genetic characteristics are listed in (Supplementary Tables 1, 2)[17]. The maximum tolerated dose (MTD) was determined to be 36 MBq/kg administered by intra-peritoneal injection twice weekly for a total of 4 dose fractions and this fractionated regimen was used in all studies (Supplementary Fig. 1)[18],[19]. […] Nine of 11 PDX models were MYCN amplified (Fig. 1b), which is a hallmark of high-risk neuroblastoma. Tumor response was measured as the maximum percent decrease in tumor volume after treatment and event-free survival (EFS) was measured by the area over the curve method with tumor events pre-defined by tumor growth exceeding 2 cm[3],[18].
(§2) The use of 2 mice per arm was based on the previously reported statistical analysis. PDX tumors were implanted into the right flank of 5 to 6-weeks old female mice weighing about 20–25 grams. […] Two additional dose levels of 12, and 24 MBq/kg/fraction were assessed in a subset of models and were administered as stated above. In two models treated at the 24 MBq/kg/fraction dose level we re-challenged tumor response at the time of tumor progression with an additional 4 dose fractions at 24 MBq/kg/fraction given twice weekly. Doses were prepared in 500 µL total volume. An equal volume of saline was used for the vehicle group. Tumors were measured using a digital caliper at the initiation of the study and two times per week during the treatment period. Tumor volumes were calculated as volume = ([…]∗0.5236)/1000. Weights were obtained twice weekly and mice were monitored daily for signs of toxicity. […] Tumor response was assessed by best response defined as greatest reduction in tumor volume following the last dose and is presented as percent change in tumor volume. Event-free survival was determined by area over the curve method that calculates the time to tumor event, which was defined as tumors reaching or exceeding a size ≥ 2 cm^3.
(§3) Animal studies were performed in female mice due to the lack of sex-related differences for [^211At]PTT tolerability from initial dose response studies performed in female and male mice. Female mice were chosen due to their underlying behavior towards other study subjects that reduced nonstudy-related causes for decreased wellness. Pre-clinical efficacy studies were performed through “single mouse testing” to more closely recapitulate a clinical trial. […] Number size for treatment groups was determined by model tumor growth reproducibility, which was previously shown to have less than 5% normal variation with at least two animals. Statistical tests for tumor response and event-free survival (EFS) were performed as a grouped analysis that included all tumor models treated at each respective dose level (n = 2 per model per dose level). Statistical differences between treatment groups for tumor response was performed by paired-model T-test that compared reduction in tumor volume for the 36 MBq/kg dose level vs. 24 MBq/kg or 12 MBq/kg. Event free survival was measured by area over the curve method to quantify time to event, which was set as tumor growth exceeding 2 cm[3],[19]. Differences in EFS were tested across all treated models for each respective dose level, and against untreated controls, by paired-model ANOVA analysis. Associations of drug target expression and response were performed by linear regression analysis of EFS and PARP1 mRNA expression. Genetic signatures were visually presented as a function of EFS and no statistical tests were applied. Blood and marrow toxicity studies were performed with n = 5 sample sizes and powered to detect >20% differences between untreated controls and treated animals. Results were tested for significance by one-way ANOVA comparison from untreated controls. Marrow colony formation assays were performed in replicates of 2 for each mouse subject, dependent on marrow isolation, and all replicates are included in final analyses. […]

COG-N-421x = test: Pre-clinical efficacy study, COG-N-421x PDX; format: in vivo; conditions: 36 MBq/kg/fraction x 4 fractions, single mouse
Description: as §1
The use of 2 mice per arm was based on the previously reported statistical analysis. […] Two additional dose levels of 12, and 24 MBq/kg/fraction were assessed in a subset of models and were administered as stated above. […] Tumors were measured using a digital caliper at the initiation of the study and two times per week during the treatment period. Tumor volumes were calculated as volume = ((diameter^1/2 + diameter^2/2)^3∗0.5236)/1000. Weights were obtained twice weekly and mice were monitored daily for signs of toxicity. […] Tumor response was assessed by best response defined as greatest reduction in tumor volume following the last dose and is presented as percent change in tumor volume. […]

COG-N-440x = test: Pre-clinical efficacy study, COG-N-440x PDX; format: in vivo; conditions: single mouse
Description: as §1, §2, §3

COG-N-415x = test: Pre-clinical efficacy study, COG-N-415x PDX; format: in vivo; conditions: single mouse
Description: as §1, §2, §3

[1] = NB-EBC1x, 24 MBq/kg/fraction x 4 fractions
[2] = NB-EBC1x, 36 MBq/kg/fraction x 4 fractions
[3] = 12 MBq/kg/fraction x 4 fractions
[4] = 24 MBq/kg/fraction x 4 fractions
[5] = 36 MBq/kg/fraction x 4 fractions

For `O=C1NCCn2c(-c3ccc([211At])cc3)nc3cccc1c32` [[^211At]PTT, Astatine-211-parthanatine], the “EFS1 (initial treatment)” value (NB-EBC1x; NB-EBC1x, 24 MBq/kg/fraction x 4, re-challenged mouse n = 1) was 45, the “EFS by AOC method” value (NB-EBC1x; [1]) was 58.4 days and the “Tumor response (% growth from study initiation at ~ 200 mm3)” value (NB-EBC1x; [1]) was -100%. For the same molecule, the “EFS by AOC method” value (NB-EBC1x; [2]) was 90.4 days and 97.6 days and 90.485 days and 97.6925 days, the “Tumor response (% growth from study initiation at ~ 200 mm3)” value (NB-EBC1x; [2]) was -100% and the “EFS2 (re-challenge treatment)” value (NB-EBC1x; NB-EBC1x, re-challenge 24 MBq/kg/fraction x 4 at tumor progression, progressing disease) was 47. The “Tumor Volume” value (NB-EBC1x; week 0) was 0.17 cm3, the “Tumor Volume” value (NB-EBC1x; week 0.6) was 0.28 cm3 and the “Tumor Volume” value (NB-EBC1x; week 1.1) was 0.24 cm3. The “Tumor Volume” value (NB-EBC1x; week 1.6) was 0.04 cm3, the “Tumor Volume” value (NB-EBC1x; week 2) was 0.01 cm3 and the “Tumor Volume” value (NB-EBC1x; week 2.6) was 0 cm3. For the same molecule, the “Tumor Volume” value (NB-EBC1x; week 3.1) was 0 cm3, the “Tumor Volume” value (NB-EBC1x; week 3.6) was 0 cm3 and the “Tumor Volume” value (NB-EBC1x; week 4.1) was 0 cm3. The “Tumor Volume” value (NB-EBC1x; week 4.6) was 0 cm3, the “Tumor Volume” value (NB-EBC1x; week 5) was 0.05 cm3 and the “Tumor Volume” value (NB-EBC1x; week 5.6) was 0.32 cm3. For the same molecule, the “Tumor Volume” value (NB-EBC1x; week 6) was 0.41 cm3, the “Tumor Volume” value (NB-EBC1x; week 6.6) was 1.05 cm3 and the “Tumor Volume” value (NB-EBC1x; week 7) was 0.73 cm3. The “Tumor Volume” value (NB-EBC1x; week 7.6) was 0.34 cm3, the “Tumor Volume” value (NB-EBC1x; week 8) was 0.16 cm3 and the “Tumor Volume” value (NB-EBC1x; week 8.6) was 0.03 cm3. For the same molecule, the “Tumor Volume” value (NB-EBC1x; week 9) was 0.07 cm3, the “Tumor Volume” value (NB-EBC1x; week 9.6) was 0.07 cm3 and the “Tumor Volume” value (NB-EBC1x; week 10) was 0 cm3. The “Tumor Volume” value (NB-EBC1x; week 10.6) was 0 cm3, the “Tumor Volume” value (NB-EBC1x; week 11) was 0 cm3 and the “Tumor Volume” value (NB-EBC1x; week 11.6) was 0 cm3. For the same molecule, the “Tumor Volume” value (NB-EBC1x; week 12) was 0 cm3, the “Tumor Volume” value (NB-EBC1x; week 12.6) was 0.02 cm3 and the “Tumor Volume” value (NB-EBC1x; week 13) was 0.06 cm3. For the same molecule, the “Tumor Volume” value (NB-EBC1x; week 13.6) was 0.34 cm3, the “Tumor Volume” value (NB-EBC1x; week 14) was 0.98 cm3 and the “EFS by AOC method” value (COG-N-421x) was 61.4391 days and 76.0056 days. For the same molecule, the “Tumor response (% growth from study initiation at ~ 200 mm3)” value (COG-N-421x) was -100%, the “EFS by AOC method” value (COG-N-440x; [3]) was 28.3679 days and 26.6227 days and the “Tumor response (% growth from study initiation at ~ 200 mm3)” value (COG-N-440x; [3]) was -72.727% and -75.758%. For the same molecule, the “EFS by AOC method” value (COG-N-440x; [4]) was 50.2168 days and 42.5399 days, the “Tumor response (% growth from study initiation at ~ 200 mm3)” value (COG-N-440x; [4]) was -95.833% and -100% and the “EFS by AOC method” value (COG-N-440x; [5]) was 78.8444 days and 65.1924 days. The “Tumor response (% growth from study initiation at ~ 200 mm3)” value (COG-N-440x; [5]) was -100%, the “EFS by AOC method” value (COG-N-415x; [3]) was 14.1951 days and 16.6777 days and the “Tumor response (% growth from study initiation at ~ 200 mm3)” value (COG-N-415x; [3]) was 74.1936% and -21.7391%. The “EFS by AOC method” value (COG-N-415x; [4]) was 27.6 days and 26.9 days and 27.5972 days and 26.9655 days, the “Tumor response (% growth from study initiation at ~ 200 mm3)” value (COG-N-415x; [4]) was -80.7692% and -84.6154% and the “EFS by AOC method” value (COG-N-415x; [5]) was 38.3761 days and 73.0746 days. The “Tumor response (% growth from study initiation at ~ 200 mm3)” value (COG-N-415x; [5]) was -100% and -94.4444%.
